These results are taken from patent US8895568B2, “Compositions comprising substituted pteridines as agrochemicals” (Dow AgroSciences LLC, priority 2009, dated 2014).

Read-outs that look alike come from different tables or passages of the source. Where only a bound is given, the exact number is not on record here.

Common to all, as to assay type: in vivo
For one assay, the system named is Colletotricum lagenarium. In words: Cucumber Anthracnose (COLLLA), foliar spray, percent disease control.
Assay [1] deals with Pseudoperonospora cubensis. In words: Cucumber Downy Mildew (PSPECU), foliar spray, percent disease control. The following applies: read-out: PSPECU percent control.
The test system of assay [2] is DROSME, AEDSAE, LAPHEG, or HELIVI. As to the kind of experiment: Insecticidal activity, active if any of DROSME, AEDSAE, LAPHEG or HELIVI was controlled at 80% or more. The settings on record: read-out: >80% mortality on any insect species @ 4000 ppm.
For a further assay, the system named is Cochliobolus sativus. As to the kind of experiment: Spot Blotch of Wheat (COCHSA), foliar spray, percent disease control. The following applies: Bipolaris sorokiniana, read-out: COCHSA percent control.

In the case of `Fc1cc(F)c(Oc2ccc(CCNc3ncnc4nccnc34)cc2)nc1F` [Compound 150], the pest or weed control at 200 µg/mL was in the range of 0 to 49% in the assay on Colletotricum lagenarium (foliar), 80 to 100% in assay [1] (foliar) and 0 to 49% in the assay on Cochliobolus sativus (foliar). Further, in assay [2], the pest or weed control at 4000 ppm was over 80%.

For the compound `Cc1cnc(Oc2ccc(CCNc3ncnc4nccnc34)cc2)s1` [Compound 66], the pest or weed control at 200 µg/mL in the assay with Colletotricum lagenarium (foliar) lay in the range of 80 to 100%; in assay [1] (foliar), 80 to 100%; with Cochliobolus sativus (foliar), 50 to 79%. Besides, the pest or weed control at 4000 ppm in assay [2] is over 80%.

With `CC(C)(C)OC(=O)c1ccc(Oc2ccc(CCNc3ncnc4nccnc34)cc2)nc1` [Compound 165], the pest or weed control at 200 µg/mL in the assay with Colletotricum lagenarium (foliar) was 0 to 49%; in assay [1] (foliar), 80 to 100%; in the assay with Cochliobolus sativus (foliar), 0 to 49%. For the same compound, the pest or weed control at 4000 ppm in assay [2] is over 80%.

Consider `Cc1cnc2ncnc(NCCc3ccc(Oc4ccc(C#N)cn4)cc3)c2n1` [Compound 52], for which the pest or weed control at 200 µg/mL fell in the range of 0 to 49% in the assay with Colletotricum lagenarium (foliar), 80 to 100% in assay [1] (foliar) and 0 to 49% with Cochliobolus sativus (foliar). Further, the pest or weed control at 4000 ppm in assay [2] is over 80%.

As for `Cc1nc(NCCc2ccc(Oc3cc(C(F)(F)F)ccn3)cc2)c2nc(C)c(C)nc2n1` [Compound 215], the pest or weed control at 200 µg/mL with Colletotricum lagenarium (foliar spray) lay in the range of 0 to 49%; in assay [1] (foliar spray), 80 to 100%; in the assay on Cochliobolus sativus (foliar spray), 0 to 49%. Also, in assay [2], the pest or weed control at 4000 ppm is over 80%.

On to `COC(=O)c1cc(CCNc2ncnc3nccnc23)ccc1Oc1cc(C(F)(F)F)ccn1` [Compound 213, 5-[2-(Pteridin-4-ylamino)-ethyl]-2-(4-trifluoromethyl-pyridin-2-yloxy)-benzoic acid, methyl ester], for which the pest or weed control at 200 µg/mL in the assay with Colletotricum lagenarium (foliar spray) lay in the range of 0 to 49%; in assay [1] (foliar spray) it was 80 to 100%; in the assay with Cochliobolus sativus (foliar spray), 0 to 49%. Moreover, the pest or weed control at 4000 ppm in assay [2] was over 80%.

Regarding `CCOC(=O)c1ccc(Oc2ccc(CCNc3ncnc4nccnc34)cc2)nc1` [Compound 137], the pest or weed control at 200 µg/mL (in the assay on Colletotricum lagenarium (foliar); in assay [1] (foliar); with Cochliobolus sativus (foliar)) was 0 to 49% throughout. Also, in assay [2], the pest or weed control at 4000 ppm was over 80%.

With `CC(C)c1ccc(Oc2ccc(CCNc3ncnc4nccnc34)cc2)cc1` [Compound 132, {2-[4-(4-Isopropylphenoxy)-phenyl]-ethyl}-pteridin-4-yl-amine], the pest or weed control at 200 µg/mL is 0 to 49% with Colletotricum lagenarium (foliar), 80 to 100% in assay [1] (foliar) and 0 to 49% with Cochliobolus sativus (foliar). The pest or weed control at 4000 ppm in assay [2] was over 80%.

With `FC(F)(F)COc1ccnc(Oc2ccc(CCNc3ncnc4nccnc34)cc2)c1` [Compound 96, Pteridin-4-yl-(2-{4-[4-(2,2,2-trifluoroethoxy)-pyridin-2-yloxy]-phenyl}-ethyl)-amine], the pest or weed control at 200 µg/mL lay in the range of 0 to 49% with Colletotricum lagenarium (foliar), 80 to 100% in assay [1] (foliar) and 0 to 49% in the assay on Cochliobolus sativus (foliar). In addition, the pest or weed control at 4000 ppm in assay [2] was over 80%.

With `Cc1cc(CCNc2ncnc3nccnc23)ccc1Oc1ncc(C(F)(F)F)cc1F` [Compound 143], the values for the pest or weed control at 200 µg/mL (in the assay with Colletotricum lagenarium (foliar); in assay [1] (foliar); with Cochliobolus sativus (foliar)) were 0 to 49%, 80 to 100% and 0 to 49%, respectively. In assay [2], the pest or weed control at 4000 ppm was over 80%.

For `Fc1cc(C(F)(F)F)cnc1Oc1ccc(CCNc2ncnc3nccnc23)cc1` [Compound 54], the pest or weed control at 200 µg/mL in the assay with Colletotricum lagenarium (foliar) lay in the range of 80 to 100%; in assay [1] (foliar), 80 to 100%; in the assay on Cochliobolus sativus (foliar), 0 to 49%. Also, the pest or weed control at 4000 ppm in assay [2] was over 80%.

Regarding `Cc1cc(Oc2cc(C(F)(F)F)ccn2)ccc1CCNc1ncnc2nccnc12` [Compound 129], the pest or weed control at 200 µg/mL with Colletotricum lagenarium (foliar) lay within 50 to 79%; in assay [1] (foliar), 80 to 100%; in the assay with Cochliobolus sativus (foliar) it was 50 to 79%. Besides, in assay [2], the pest or weed control at 4000 ppm was over 80%.

For the compound `CC1=CSc2cc(CCNc3ncnc4nccnc34)ccc2O1` [Compound 231], the pest or weed control at 200 µg/mL (in the assay on Colletotricum lagenarium (foliar spray); in assay [1] (foliar spray); with Cochliobolus sativus (foliar spray)) was 0 to 49% throughout. The pest or weed control at 4000 ppm in assay [2] is over 80%.

Consider `Cc1nc2ncnc(NCCc3ccc(Oc4ncccc4C(F)(F)F)cc3)c2nc1C` [Compound 200], for which the pest or weed control at 200 µg/mL (in the assay with Colletotricum lagenarium (foliar spray); in assay [1] (foliar spray); in the assay on Cochliobolus sativus (foliar spray)) was 0 to 49% throughout. The pest or weed control at 4000 ppm in assay [2] was over 80%.

Take `CC(Sc1ncnc2nccnc12)c1cccc(C(F)(F)F)c1` (stereo not drawn) [Compound 79]: the pest or weed control at 200 µg/mL (with Colletotricum lagenarium (foliar); in assay [1] (foliar); with Cochliobolus sativus (foliar)) was 0 to 49% in each case. For the same compound, the pest or weed control at 4000 ppm in assay [2] is over 80%.

Regarding `CC(Nc1ncnc2nccnc12)c1ccc(Oc2nccc(C(F)(F)F)n2)cc1` (stereo not drawn) [Compound 68], the pest or weed control at 200 µg/mL with Colletotricum lagenarium (foliar) lay within 0 to 49%; in assay [1] (foliar) it was 80 to 100%; with Cochliobolus sativus (foliar), 0 to 49%. In assay [2], the pest or weed control at 4000 ppm is over 80%.

As to `FC(F)(F)c1ccncc1Oc1ccc(CCNc2ncnc3nccnc23)cc1` [Compound 111], the pest or weed control at 200 µg/mL fell in the range of 50 to 79% with Colletotricum lagenarium (foliar), 80 to 100% in assay [1] (foliar) and 0 to 49% in the assay with Cochliobolus sativus (foliar). The pest or weed control at 4000 ppm in assay [2] is over 80%.

In the case of `O=C(c1ccc(Oc2ccc(CCNc3ncnc4nccnc34)cc2)nc1)C1CC1` [Compound 30], the pest or weed control at 200 µg/mL in the assay with Colletotricum lagenarium (foliar) is 0 to 49%; in assay [1] (foliar), 50 to 79%; in the assay with Cochliobolus sativus (foliar), 0 to 49%. In addition, the pest or weed control at 4000 ppm in assay [2] is over 80%.

As to `Fc1cnc(Oc2ccc(CCNc3ncnc4nccnc34)cc2)c(F)c1` [Compound 107], the pest or weed control at 200 µg/mL with Colletotricum lagenarium (foliar) lay within 0 to 49%; in assay [1] (foliar) it was 80 to 100%; in the assay with Cochliobolus sativus (foliar), 0 to 49%. In addition, in assay [2], the pest or weed control at 4000 ppm is over 80%.

Consider `Cc1nc(NCCc2ccc(Oc3ncc(C(F)(F)F)cc3F)cc2)c2nc(C)c(C)nc2n1` [Compound 214], for which the pest or weed control at 200 µg/mL (in the assay with Colletotricum lagenarium (foliar spray); in assay [1] (foliar spray); in the assay on Cochliobolus sativus (foliar spray)) was 0 to 49% throughout. Moreover, the pest or weed control at 4000 ppm in assay [2] is over 80%.

On to `Cc1cc(CCNc2ncnc3nccnc23)ccc1Oc1cc(C(C)(F)F)ccn1` [Compound 169], for which the pest or weed control at 200 µg/mL lay in the range of 50 to 79% in the assay with Colletotricum lagenarium (foliar), 80 to 100% in assay [1] (foliar) and 0 to 49% in the assay on Cochliobolus sativus (foliar). Also, the pest or weed control at 4000 ppm in assay [2] was over 80%.

Regarding `FC(F)(F)c1ccc(Oc2ccc(CCNc3ncnc4nccnc34)cc2)nc1` [Compound 5], the pest or weed control at 200 µg/mL in the assay on Colletotricum lagenarium (foliar) is 80 to 100%; in assay [1] (foliar) it was 80 to 100%; with Cochliobolus sativus (foliar), 0 to 49%. Moreover, the pest or weed control at 4000 ppm in assay [2] was over 80%.

Turning to `Cc1cc(Oc2cc(C(C)(F)F)ccn2)c(C)cc1CCNc1ncnc2nccnc12` [Compound 194], the pest or weed control at 200 µg/mL lay in the range of 80 to 100% with Colletotricum lagenarium (foliar), 80 to 100% in assay [1] (foliar) and 0 to 49% in the assay on Cochliobolus sativus (foliar). Further, in assay [2], the pest or weed control at 4000 ppm is over 80%.

Take `Cc1cnc2ncnc(NCCc3ccc(Oc4ncc(C(F)(F)F)cc4F)cc3)c2n1` [Compound 53]: the pest or weed control at 200 µg/mL in the assay on Colletotricum lagenarium (foliar) was 80 to 100%; in assay [1] (foliar), 80 to 100%; in the assay with Cochliobolus sativus (foliar), 0 to 49%. The pest or weed control at 4000 ppm in assay [2] was over 80%.

Regarding `COc1cc(CCNc2ncnc3nccnc23)ccc1Oc1cc(C(C)(F)F)ccn1` [Compound 170, (2-{4-[4-(1,1-difluoroethyl)-pyridin-2-yloxy]-3-methoxyphenyl}-ethyl)-pteridin-4-yl-amine], the pest or weed control at 200 µg/mL lay in the range of 0 to 49% in the assay on Colletotricum lagenarium (foliar), 80 to 100% in assay [1] (foliar) and 0 to 49% in the assay on Cochliobolus sativus (foliar). In assay [2], the pest or weed control at 4000 ppm was over 80%.

For the compound `FC(F)(F)COc1cccc(Oc2ccc(CCNc3ncnc4nccnc34)cc2)n1` [Compound 11, Pteridin-4-yl-(2-{4-[6-(2,2,2-trifluoroethoxy)-pyridin-2-yloxy]-phenyl}-ethyl)-amine], the pest or weed control at 200 µg/mL fell in the range of 0 to 49% with Colletotricum lagenarium (foliar), 50 to 79% in assay [1] (foliar) and 0 to 49% with Cochliobolus sativus (foliar). Besides, in assay [2], the pest or weed control at 4000 ppm is over 80%.

Consider `COCCOc1cc(C(F)(F)F)cc(Oc2ccc(CCNc3ncnc4nccnc34)cc2)n1` [Compound 91, (2-{4-[6-(2-Methoxyethoxy)-4-trifluoromethyl-pyridin-2-yloxy]-phenyl}-ethyl)-pteridin-4-yl-amine], for which the results for the pest or weed control at 200 µg/mL (in the assay with Colletotricum lagenarium (foliar); in assay [1] (foliar); in the assay on Cochliobolus sativus (foliar)) were 0 to 49%, 80 to 100% and 0 to 49%, respectively. For the same compound, the pest or weed control at 4000 ppm in assay [2] was over 80%.

As to `CC(Nc1ncnc2nccnc12)c1ccc(Oc2cc(C(F)(F)F)ccn2)cc1` (stereo not drawn) [Compound 82], the figures for the pest or weed control at 200 µg/mL (in the assay on Colletotricum lagenarium (foliar); in assay [1] (foliar); with Cochliobolus sativus (foliar)) were 0 to 49%, 80 to 100% and 0 to 49%, respectively. Also, the pest or weed control at 4000 ppm in assay [2] was over 80%.

`c1ccc(COc2ccc(CCOc3ccc(CCNc4ncnc5nccnc45)cc3)cc2)cc1` [Compound 140, (2-{4-[2-(4-Benzyloxy-phenyl)-ethoxy]-phenyl}-ethyl)-pteridin-4-yl-amine]: the pest or weed control at 200 µg/mL in the assay with Colletotricum lagenarium (foliar) fell in the range of 50 to 79%; in assay [1] (foliar), 80 to 100%; in the assay on Cochliobolus sativus (foliar), 0 to 49%. Further, the pest or weed control at 4000 ppm in assay [2] is over 80%.

With `Fc1cccc(Oc2ccc(CCNc3ncnc4nccnc34)cc2)c1C(F)(F)F` [Compound 216], the pest or weed control at 200 µg/mL fell in the range of 0 to 49% in the assay on Colletotricum lagenarium (foliar spray), 80 to 100% in assay [1] (foliar spray) and 0 to 49% in the assay on Cochliobolus sativus (foliar spray). In addition, in assay [2], the pest or weed control at 4000 ppm is over 80%.
